Assay results reported in US5658884A, “Establishment of tonic ovarian estrogen secretion for extended therapeutic regimens” (The Medical College of Hampton Roads, priority 1995, dated 1997).
Several values for one entry are separate records, joined by “and”; a condition that tells them apart may be missing. Identical values can stand only once.

Key:
pituitary-ovarian axis = conditions: sufficient single dose, monkeys, follicular phase; cited from earlier work
[1] = test system: adult female cynomolgus monkeys; assay: Part I dose-finding study: residual serum estradiol (RIA) during 14 days of daily im GnRH antagonist; type: in vivo; conditions: 0.1 mg/kg im daily; individual monkeys for whom the dose was too much, predominately
Method: (§1) Eleven adult female cynomolgus monkeys having regular and presumably ovulatory menstrual cycles were entered into the study. Body weights were determined monthly. Menstrual bleeding and spotting were recorded daily by visual inspection of external genitalia and insertion of vaginal swabs using a saline moistened cotton-tipped applicator, respectively. Blood samples were collected from femoral vessels and the serum stored for subsequent RIA of estradiol and progesterone. Coefficients of variation for these assays were: 7.4 and 11.1; and 7.0 and 10.9%, respectively, for within and between assays. The GnRH antagonist (GnRHant) used was Nal-Glu: [Ac-D2NAL, 4ClDPhe^2, D3Pal^3, Arg^5, DGlu^6 (AA), DAla^10 ]-GnRH.
In Part I of the study, the object was to perform a brief dose-finding study that indicated residual serum estradiol levels in intact primates previously illustrating regular menstrual cycles. Specifically sought was an approximation of the minimal daily im dose of Nal-Glu sufficient to suppress circulating estradiol levels into the target range: less than 45 pg/ml but more than 35 pg/ml. Beginning on day 2 of the menstrual cycle, Nal-Glu GnRHant, suspended in sesame oil, was administered between 9 and 10 am in doses of 0.1 (n=5) and 0.3 mg/kg (n=6) for 14 days. Femoral blood was obtained daily under ketamine anesthesia. […]

[2] = test system: adult female cynomolgus monkeys; assay: Part II: titering the GnRHant dose to individual monkeys with periodic progesterone challenge tests (withdrawal bleeding versus amenorrhea, serum estradiol RIA); type: in vivo
Method: as §1
Concurrently, a pair of progesterone-loaded silastic implants were inserted sc during GnRHant treatment from day 20 and 30, and then removed. If withdrawal menses occurred during the next week, the individual Nal-Glu dose was raised to 0.1 mg/kg daily. […] Again, amenorrhea or withdrawal menses was recorded.
For definition, withdrawal bleeding was scored when blood was on the external genitalia for two or more consecutive days within the week following progesterone withdrawal. Spotting was scored when blood was evident only by coloration of the cotton swab upon insertion into the vagina.

Substance	effect on the pituitary-ovarian axis (pituitary-ovarian axis)	serum estradiols of some primates [1] [pg/mL]	mean serum estradiol concentrations ([2]; 8 monkeys after increase of the dose to 0.1 mg/kg im daily)	Amenorrhea Achieved (Monkeys) ([2]; first progesterone challenge test, withdrawal week days 31-37, all 11 monkeys at 0.05 mg/kg im daily)	monkeys manifesting frank withdrawal menses ([2]; first progesterone challenge test, 0.05 mg/kg im daily)	serum estradiol ([2]; lone resistant monkey at 0.2 mg/kg im daily, ultimately)	Amenorrhea Achieved (Monkeys) ([2]; second progesterone challenge test, withdrawal week days 61-67, doses 0.05 or 0.1 mg/kg im daily)	withdrawal outcome of the two monkeys that remained on 0.05 mg/kg ([2]; second progesterone challenge test, 0.05 mg/kg im daily)	monkeys achieving withdrawal amenorrhea ([2]; second progesterone challenge test, the nine females raised to 0.1 mg/kg im daily on day 31)	mean serum estradiol levels ([2]; the two primates amenorrheic at 0.05 mg/kg im daily, target zone 35 to 45 pg/ml)	Amenorrhea Achieved (Monkeys) ([2]; third progesterone challenge test, withdrawal week days 91-97, doses 0.05, 0.1 or 0.2 mg/kg im daily)	Incidence of Spotting ([2]; week of progesterone withdrawal days 31-37, 0.05 mg/kg im daily) [days]	Incidence of Spotting ([2]; week of progesterone withdrawal days 61-67, 0.05 or 0.1 mg/kg im daily) [days]	Incidence of Spotting ([2]; week of progesterone withdrawal days 91-97, 0.05, 0.1 or 0.2 mg/kg im daily) [days]
D-Ac-D-2-Nal^1 -DpClPhe^2 -D-3-Pal^3 -Ser^4 -NiLys^5 -D-NicLys^6 -Leu^7 -ILys^8 -Pro^9 -D-Ala^10 [antide]	immediate and sustained inhibition of the pituitary-ovarian axis	–	–	–	–	–	–	–	–	–	–	–	–	–
[Ac-D2NAL, 4ClDPhe^2, D3Pal^3, Arg^5, DGlu^6 (AA), DAla^10 ]-GnRH [Nal-Glu]	–	< 25	approximately 40 pg/ml	two and 2/11	Nine	under 20 pg/ml	10/11	remained amenorrheic	8 of 9	hovered in or near the target zone	all eleven and 11/11	13	12	0
